ChEMBL document CHEMBL1156230, “Identification of phenylsulfone-substituted quinoxaline (WYE-672) as a tissue selective liver X-receptor (LXR) agonist” (J Med Chem, 2010)
Calls of active or inactive are those of the source. The calls are words filed in the database; no cut-off is given here.

Tests used:
[1] = Tmax in C57 mouse at 10 mg/kg, po; type: ADME, organism-based; set-up: dose 10 mg/kg, route oral; conditions: in vivo
[2] = target: T1, Bile acid receptor (Homo sapiens) (UniProt Q96RI1); experiment: Binding affinity to FXR
T1 sequence (whole entry): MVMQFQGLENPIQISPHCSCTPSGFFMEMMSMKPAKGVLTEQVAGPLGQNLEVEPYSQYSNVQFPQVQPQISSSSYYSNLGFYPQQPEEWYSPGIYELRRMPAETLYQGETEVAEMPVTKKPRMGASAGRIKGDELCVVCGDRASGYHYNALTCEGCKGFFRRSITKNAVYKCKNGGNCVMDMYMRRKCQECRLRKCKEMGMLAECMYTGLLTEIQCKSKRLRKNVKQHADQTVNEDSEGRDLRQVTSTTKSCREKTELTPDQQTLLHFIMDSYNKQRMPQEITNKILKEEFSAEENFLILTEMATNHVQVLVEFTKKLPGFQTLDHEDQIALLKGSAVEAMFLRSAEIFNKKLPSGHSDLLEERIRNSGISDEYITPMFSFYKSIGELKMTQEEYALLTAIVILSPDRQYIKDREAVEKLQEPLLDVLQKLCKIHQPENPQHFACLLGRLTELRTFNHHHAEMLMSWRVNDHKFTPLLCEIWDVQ

[3] = target: T2, Androgen receptor (Homo sapiens) (UniProt P10275); experiment: Binding affinity to androgen receptor
T2 sequence (whole entry): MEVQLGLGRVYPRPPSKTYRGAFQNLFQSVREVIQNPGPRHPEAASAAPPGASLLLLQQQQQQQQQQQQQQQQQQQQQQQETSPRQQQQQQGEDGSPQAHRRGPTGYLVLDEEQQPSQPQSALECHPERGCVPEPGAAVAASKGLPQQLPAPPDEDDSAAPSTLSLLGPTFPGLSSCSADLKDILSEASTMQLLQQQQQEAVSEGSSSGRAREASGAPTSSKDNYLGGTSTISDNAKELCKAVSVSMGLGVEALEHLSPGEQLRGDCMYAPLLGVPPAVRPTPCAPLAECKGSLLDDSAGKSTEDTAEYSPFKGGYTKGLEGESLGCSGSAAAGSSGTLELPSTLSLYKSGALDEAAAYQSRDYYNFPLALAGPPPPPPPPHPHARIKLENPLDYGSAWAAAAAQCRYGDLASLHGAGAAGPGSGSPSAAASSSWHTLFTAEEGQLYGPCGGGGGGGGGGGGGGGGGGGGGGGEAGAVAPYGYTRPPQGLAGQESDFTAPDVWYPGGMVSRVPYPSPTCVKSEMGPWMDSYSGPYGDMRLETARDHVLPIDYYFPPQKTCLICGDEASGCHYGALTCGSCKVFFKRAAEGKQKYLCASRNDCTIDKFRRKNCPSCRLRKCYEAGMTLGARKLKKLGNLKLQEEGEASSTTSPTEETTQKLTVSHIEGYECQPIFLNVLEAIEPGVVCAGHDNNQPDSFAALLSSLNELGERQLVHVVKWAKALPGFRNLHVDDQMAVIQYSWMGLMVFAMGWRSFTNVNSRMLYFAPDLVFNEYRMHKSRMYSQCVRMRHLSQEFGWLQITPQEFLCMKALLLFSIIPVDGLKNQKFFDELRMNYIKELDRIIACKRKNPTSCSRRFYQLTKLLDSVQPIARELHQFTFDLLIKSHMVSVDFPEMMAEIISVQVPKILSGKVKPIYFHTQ

[4] = target: T3, Estrogen receptor (Homo sapiens) (UniProt P03372); experiment: Binding affinity to estrogen receptor
T3 sequence (whole entry): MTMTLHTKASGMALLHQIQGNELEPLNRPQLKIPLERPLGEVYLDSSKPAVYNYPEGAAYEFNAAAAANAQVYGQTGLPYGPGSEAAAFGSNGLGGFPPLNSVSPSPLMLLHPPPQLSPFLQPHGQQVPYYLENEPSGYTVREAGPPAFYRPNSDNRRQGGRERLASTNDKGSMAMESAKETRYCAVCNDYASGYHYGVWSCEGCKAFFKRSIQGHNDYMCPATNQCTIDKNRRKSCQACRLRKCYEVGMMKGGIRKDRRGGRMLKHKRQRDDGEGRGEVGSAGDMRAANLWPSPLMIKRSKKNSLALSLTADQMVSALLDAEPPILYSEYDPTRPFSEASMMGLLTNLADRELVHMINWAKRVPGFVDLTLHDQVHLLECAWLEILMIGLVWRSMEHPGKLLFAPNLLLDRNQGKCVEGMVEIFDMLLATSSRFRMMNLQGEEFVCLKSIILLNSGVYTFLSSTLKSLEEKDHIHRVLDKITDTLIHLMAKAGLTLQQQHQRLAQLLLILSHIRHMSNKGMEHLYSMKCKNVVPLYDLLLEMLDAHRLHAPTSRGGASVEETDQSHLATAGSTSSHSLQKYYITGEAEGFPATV

Mus musculus = experiment: Antiatherosclerotic activity against high fat/high cholesterol fed LDLR-deficient mouse assessed as reduction in aortic arch lesion burden at 0.6 mg/kg/day administered with diet relative to control; type: functional, Pharyngeal arch artery; set-up: scale not given: the % may be the effect or the level left
[5] = target: T4, Oxysterols receptor LXR-alpha (Homo sapiens, UniProt Q13133); experiment: Displacement of [3H]T0901317 from human LXRalpha ligand binding domain
T4 sequence (Q13133 whole entry): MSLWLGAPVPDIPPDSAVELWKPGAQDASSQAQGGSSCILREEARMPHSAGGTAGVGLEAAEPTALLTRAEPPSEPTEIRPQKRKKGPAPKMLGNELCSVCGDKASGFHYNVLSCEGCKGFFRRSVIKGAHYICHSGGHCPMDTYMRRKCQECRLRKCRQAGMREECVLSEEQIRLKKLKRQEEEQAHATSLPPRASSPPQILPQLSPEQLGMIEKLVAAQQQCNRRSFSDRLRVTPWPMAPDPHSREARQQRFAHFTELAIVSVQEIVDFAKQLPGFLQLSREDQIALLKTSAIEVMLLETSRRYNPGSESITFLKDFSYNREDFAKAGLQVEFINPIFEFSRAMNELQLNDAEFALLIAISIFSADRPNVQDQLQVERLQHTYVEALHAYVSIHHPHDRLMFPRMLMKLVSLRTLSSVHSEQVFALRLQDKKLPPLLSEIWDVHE

[6] = target: Oxysterols receptor LXR-alpha (Homo sapiens, UniProt Q13133)

Tmax [1]: 4 h | Activity [2]: inactive | Activity [3]: inactive | Activity [4]: inactive | IC50 [5]: > 1000 nM | EC50 [6]: 1700 nM
Structure (SMILES): Cc1nc2c(C(F)(F)F)cccc2nc1-c1ccc(-c2cccc(S(C)(=O)=O)c2)cc1
Activity (Mus musculus): 20%
